Experimental data: patent publication US20060069132A1, “Azolecarboxamide herbicides” (priority 2004, published 2006)

How the values were obtained:
pigweed = test: Test B pre-/postemergence herbicide test; assay type: in vivo, Amaranthus retroflexus; conditions: for Pigweed plant response rating: postemergence, visual rating, scale 0 (no effect) to 100 (complete control)
Outline: (§1)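 Evaluation is visual, comparing treated with control plants on a scale where 0 means no effect and 100 means full control. Treatments were preemergence, or postemergence on seedlings 2–18 cm tall, and held 13–15 days in the greenhouse.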

morningglory [1] = test: Test A pre-/postemergence herbicide test; assay type: in vivo, Ipomoea spp.
Outline: (§2)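 Pre: seeded sandy loam, directed soil spray, compound in non-phytotoxic solvent + surfactant. Post: 1–2-leaf plants (2–10 cm), sprayed to runoff. Greenhouse ~10 d; visual injury vs untreated, 0–100 scale.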

barnyardgrass [2] = test: Test B pre-/postemergence herbicide test; assay type: in vivo, Echinochloa crus-galli; conditions: for Barnyardgrass plant response rating: postemergence, visual rating, scale 0 (no effect) to 100 (complete control)
Outline: as §1

barnyardgrass [3] = test: Test A pre-/postemergence herbicide test; assay type: in vivo, Echinochloa crus-galli
Outline: as §2

lambsquarters = test: Test B pre-/postemergence herbicide test; assay type: in vivo, Chenopodium album; conditions: for Lambsquarters plant response rating: postemergence, visual rating, scale 0 (no effect) to 100 (complete control)
Outline: as §1

blackgrass = test: Test B postemergence herbicide test; assay type: in vivo, Alopecurus myosuroides; conditions: postemergence, visual rating, scale 0 (no effect) to 100 (complete control)
Outline: (§3)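 Each value is a visual 0–100 response rating taken against controls 13 to 15 days after treatment in the greenhouse. Plants received formulated chemical postemergence at the 1- to 4-leaf stage or, in flooded paddy, at the 2-leaf stage.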

redroot pigweed = test: Test A pre-/postemergence herbicide test; assay type: in vivo, Amaranthus retroflexus
Outline: as §2

velvetleaf [4] = test: Test B pre-/postemergence herbicide test; assay type: in vivo, Abutilon theophrasti; conditions: for Velvetleaf plant response rating: postemergence, visual rating, scale 0 (no effect) to 100 (complete control)
Outline: as §1

ducksalad = test: Test B flooded paddy test; assay type: in vivo, Heteranthera limosa; conditions: 1000 g ai/ha, visual rating, scale 0 to 100 (0 no effect, 100 complete control), 13 to 15 days
Outline: as §3

rice [5] = test: Test B pre-/postemergence herbicide test; assay type: in vivo, Oryza sativa; conditions: preemergence
Outline: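 Plants compared with untreated controls 13–15 days post-treatment and given a visual 0–100 injury score. Applications: preemergence to seeds; postemergence at 1- to 4-leaf (2–18 cm); paddy species flooded, 2-leaf stage. Vehicle non-phytotoxic, surfactant included.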

velvetleaf [6] = test: Test A pre-/postemergence herbicide test; assay type: in vivo, Abutilon theophrasti
Outline: as §2

large crabgrass [7] = test: Test B pre-/postemergence herbicide test; assay type: in vivo, Digitaria sanguinalis; conditions: for Crabgrass, Large plant response rating: postemergence, visual rating, scale 0 (no effect) to 100 (complete control)
Outline: as §1

giant foxtail [8] = test: Test A pre-/postemergence herbicide test; assay type: in vivo, Setaria faberi
Outline: as §2

Surinam grass = test: Test B pre-/postemergence herbicide test; assay type: in vivo, Urochloa decumbens; conditions: for Surinam Grass plant response rating: postemergence, visual rating, scale 0 (no effect) to 100 (complete control)
Outline: as §1

wheat = test: Test B postemergence herbicide test; assay type: in vivo, Triticum aestivum; parameters: key to Wheat plant response rating: 0 = no effect, 100 = complete control; conditions: postemergence, visual rating, scale 0 (no effect) to 100 (complete control)
Outline: as §3

corn = test: Test B pre-/postemergence herbicide test; assay type: in vivo, Zea mays; conditions: for Corn plant response rating: postemergence, visual rating, scale 0 (no effect) to 100 (complete control)
Outline: as §1

rice [9] = test: Test B flooded paddy test; assay type: in vivo, Oryza sativa; conditions: 1000 g ai/ha, visual rating, scale 0 to 100 (0 no effect, 100 complete control), 13 to 15 days
Outline: as §3

morningglory [10] = test: Test B pre-/postemergence herbicide test; assay type: in vivo, Ipomoea coccinea; conditions: for Morningglory plant response rating: postemergence, visual rating, scale 0 (no effect) to 100 (complete control)
Outline: as §1

wild oat = test: Test B postemergence herbicide test; assay type: in vivo, Avena fatua; conditions: postemergence, visual rating, scale 0 (no effect) to 100 (complete control)
Outline: as §3

cocklebur = test: Test B pre-/postemergence herbicide test; assay type: in vivo, Xanthium strumarium; conditions: for Cocklebur plant response rating: postemergence, visual rating, scale 0 (no effect) to 100 (complete control)
Outline: as §1

[11] = system: small flower umbrella sedge; test: Test B flooded paddy test; assay type: in vivo, Cyperus difformis; conditions: 1000 g ai/ha, visual rating, scale 0 to 100 (0 no effect, 100 complete control), 13 to 15 days
Outline: as §3

giant foxtail [12] = test: Test B pre-/postemergence herbicide test; assay type: in vivo, Setaria faberi; conditions: for Foxtail, Giant plant response rating: postemergence, visual rating, scale 0 (no effect) to 100 (complete control)
Outline: as §1

barnyardgrass [13] = test: Test B flooded paddy test; assay type: in vivo, Echinochloa crus-galli; conditions: 1000 g ai/ha, visual rating, scale 0 to 100 (0 no effect, 100 complete control), 13 to 15 days
Outline: as §3

large crabgrass [14] = test: Test A pre-/postemergence herbicide test; assay type: in vivo, Digitaria sanguinalis
Outline: as §2

[15] = 125 g ai/ha, 0 = no effect, 100 = complete control, preemergence
[16] = 500 g ai/ha, visual rating 0-100, 0 no effect, 100 complete control, preemergence
[17] = Postemergence, 500 g ai/ha, 0 to 100 scale, 0 no effect, 100 complete control
[18] = Postemergence, 2000 g ai/ha, 0 to 100 scale, 0 no effect, 100 complete control
[19] = Preemergence, 2000 g ai/ha, visual rating, 0 to 100 scale (0 no effect, 100 complete control)
[20] = preemergence, 500 g ai/ha, visual injury, 0 to 100 scale (0 no effect, 100 complete control)

CCOc1cccc(NC(=O)c2cn(C(C)(C)C)nc2C)c1 [Compound 190]
Pigweed plant response rating (0 to 100 scale) (pigweed; [15]): 30
Plant response rating, Pigweed (pigweed; [16]): 90
Pigweed plant response rating (pigweed; 125 g ai/ha): 30
Pigweed plant response rating (pigweed; 500 g ai/ha): 70
Morningglory plant response rating (morningglory [1]; [17]): 10
Plant response rating, Morningglory (morningglory [1]; [18]): 25
Morningglory plant response rating (morningglory [1]; [19]): 25
Morningglory plant response rating (morningglory [1]; [20]): 10
Barnyardgrass plant response rating (0 to 100 scale) (barnyardgrass [2]; [15]): 0
Plant response rating, Barnyardgrass (barnyardgrass [2]; [16]): 30
Barnyardgrass plant response rating (barnyardgrass [2]; 125 g ai/ha): 0
Barnyardgrass plant response rating (barnyardgrass [2]; 500 g ai/ha): 10
Barnyardgrass plant response rating (barnyardgrass [3]; [17]): 0
Plant response rating, Barnyardgrass (barnyardgrass [3]; [18]): 0
Barnyardgrass plant response rating (barnyardgrass [3]; [19]): 40
Barnyardgrass plant response rating (barnyardgrass [3]; [20]): 20
Lambsquarters plant response rating (0 to 100 scale) (lambsquarters; [15]): 0
Plant response rating, Lambsquarters (lambsquarters; [16]): 50
Lambsquarters plant response rating (lambsquarters; 125 g ai/ha): 30
Lambsquarters plant response rating (lambsquarters; 500 g ai/ha): 80
Blackgrass plant response rating (blackgrass; 125 g ai/ha): 0
Blackgrass plant response rating (blackgrass; 500 g ai/ha): 0
Pigweed plant response rating (redroot pigweed; [17]): 10
Plant response rating, Pigweed (redroot pigweed; [18]): 20
Pigweed plant response rating (redroot pigweed; [19]): 85
Pigweed plant response rating (redroot pigweed; [20]): 25
Velvetleaf plant response rating (0 to 100 scale) (velvetleaf [4]; [15]): 0
Plant response rating, Velvetleaf (velvetleaf [4]; [16]): 10
Velvetleaf plant response rating (velvetleaf [4]; 125 g ai/ha): 20
Velvetleaf plant response rating (velvetleaf [4]; 500 g ai/ha): 40
Ducksalad plant response rating (ducksalad): 60
Rice plant response rating (0 to 100 scale) (rice [5]; 125 g ai/ha, 0 = no effect, 100 = complete control): 0
Plant response rating, Rice (rice [5]; 500 g ai/ha, visual rating 0-100, 0 no effect, 100 complete control): 30
Velvetleaf plant response rating (velvetleaf [6]; [17]): 0
Plant response rating, Velvetleaf (velvetleaf [6]; [18]): 15
Velvetleaf plant response rating (velvetleaf [6]; [19]): 15
Velvetleaf plant response rating (velvetleaf [6]; [20]): 0
Crabgrass, Large plant response rating (0 to 100 scale) (large crabgrass [7]; [15]): 30
Plant response rating, Crabgrass, Large (large crabgrass [7]; [16]): 80
Crabgrass, Large plant response rating (large crabgrass [7]; 125 g ai/ha): 10
Crabgrass, Large plant response rating (large crabgrass [7]; 500 g ai/ha): 20
Foxtail, Giant plant response rating (giant foxtail [8]; [17]): 0
Plant response rating, Foxtail, Giant (giant foxtail [8]; [18]): 0
Foxtail, Giant plant response rating (giant foxtail [8]; [19]): 10
Foxtail, Giant plant response rating (giant foxtail [8]; [20]): 0
Surinam Grass plant response rating (0 to 100 scale) (Surinam grass; [15]): 0
Plant response rating, Surinam Grass (Surinam grass; [16]): 10
Surinam Grass plant response rating (Surinam grass; 125 g ai/ha): 10
Surinam Grass plant response rating (Surinam grass; 500 g ai/ha): 20
Wheat plant response rating (wheat; 125 g ai/ha): 0
Wheat plant response rating (wheat; 500 g ai/ha): 0
Corn plant response rating (0 to 100 scale) (corn; [15]): 0
Plant response rating, Corn (corn; [16]): 0
Corn plant response rating (corn; 125 g ai/ha): 10
Corn plant response rating (corn; 500 g ai/ha): 10
Rice plant response rating (rice [9]): 0
Morningglory plant response rating (0 to 100 scale) (morningglory [10]; [15]): 0
Plant response rating, Morningglory (morningglory [10]; [16]): 0
Morningglory plant response rating (morningglory [10]; 125 g ai/ha): 50
Morningglory plant response rating (morningglory [10]; 500 g ai/ha): 90
Oat, Wild plant response rating (wild oat; 125 g ai/ha): 10
Oat, Wild plant response rating (wild oat; 500 g ai/ha): 20
Cocklebur plant response rating (0 to 100 scale) (cocklebur; [15]): 0
Plant response rating, Cocklebur (cocklebur; [16]): 0
Cocklebur plant response rating (cocklebur; 125 g ai/ha): 0
Cocklebur plant response rating (cocklebur; 500 g ai/ha): 10
Sedge, Umbrella plant response rating [11]: 60
Foxtail, Giant plant response rating (0 to 100 scale) (giant foxtail [12]; [15]): 0
Plant response rating, Foxtail, Giant (giant foxtail [12]; [16]): 10
Foxtail, Giant plant response rating (giant foxtail [12]; 125 g ai/ha): 10
Foxtail, Giant plant response rating (giant foxtail [12]; 500 g ai/ha): 10
Barnyardgrass plant response rating (barnyardgrass [13]): 20
Crabgrass, Large plant response rating (large crabgrass [14]; [17]): 10
Plant response rating, Crabgrass, Large (large crabgrass [14]; [18]): 15
Crabgrass, Large plant response rating (large crabgrass [14]; [19]): 70
Crabgrass, Large plant response rating (large crabgrass [14]; [20]): 40
